Target: Histone deacetylase
Assay: Inhibition of HDAC (unknown origin)
Format: protein assay, Homo sapiens

For `Nc1nc(NCc2ccc(C(=O)Nc3ccccc3N)cc2)nc(NC2CCCC2)n1`, the IC50 was less than 200 nM.

Source: ChEMBL document CHEMBL3632573, “Triazine as a promising scaffold for its versatile biological behavior” (Eur J Med Chem, 2015)
